From publication PMC3056768, “Conjugation to the Cell-Penetrating Peptide TAT Potentiates the Photodynamic Effect of Carboxytetramethylrhodamine” (PLoS ONE, 2011)
“Also recorded” adds a separate entry of the source.

What was measured:
[1] = system: HeLa cells; experiment: Photocytotoxicity of endocytosed peptide after light irradiation (SYTOX Blue staining, membrane blebbing); format: cell-based; settings: for photocytotoxicity / cell death after irradiation at 560 nm: incubation 1 h 37°C (3 µM; TMR-K9 10 µM), irradiated at 560±20 nm
Description: (§1) HeLa (human cervical adenocarcinoma), COS-7 (SV40 transformed African green monkey kidney fibroblast-like cell line) were obtained from ATCC. COLO 316 (human ovarian carcinoma) were obtained from Robert Burghardt (Department of Veterinary Integrative Biosciences, Texas A&M University). Cells were cultured in DMEM supplemented with 10% fetal bovine serum (FBS) and maintained at 37°C in a humidified environment with 5% CO2. Cells were plated in 8-well dishes so that the cells were 70% confluent after 24 h, washed 3 times with L-15 media, incubated with 3 to 10 µM peptides at 37°C for 1 h, washed 3 times with L-15, and imaged. Alternatively, cells were incubated in L-15 at 4°C to inhibit the endocytic uptake of peptides. In this case, cells were imaged with the peptide still present in solution and the low temperature was maintained for the entire duration of imaging. For photosensitization, cells were exposed to light (λex = 560±20 nm) for the indicated time points. Plasma membrane disruption was detected by addition of the cell-impermeable DNA stain SYTOX Blue (5 µM) during or after photosensitization.
(§2) Ten to twenty images were acquired for each experiment.
Irradiances at the specimen were 100 mW/cm^2 when no neutral density filter and no objective were present in the light path (and, for instance 5 mW/cm^2 when ND4 was inserted). Irradiances were measured using a monochromic photometer (model 840-c, Newport, Irvine, CA). Irradiation area has a diameter of 1.3 cm without objective but the light beam is focused into an area of 3×10^−3 cm^2 by the 100× objective. Irradiances can therefore be approximated to be at […] with ND4 or ND1, respectively. Irradiances provided in the figure legends are based on these calculations. To confirm that the irradiances measured on the microscope were accurate, experiments were also reproduced, when possible, using light illumination with a collimated light source from Oriel (Stratford, CT) equipped with a 500 W Hg lamp. Selective irradiation at 560 nm was performed using an analytical line filter (Oriel, 9.4 nm bandwidth). In this case, irradiances of the light beam (diameter of 2.5 cm) could be measured more precisely using the monochromic photometer.

[2] = system: HeLa cells; experiment: Photosensitization of extracellular peptide at 4°C (endocytosis blocked); format: cell-based, human; settings: 3 µM, 4°C to block endocytosis, irradiated at 560 nm with compound still in the media
Description: as §1
It is therefore possible that the endosomal release observed in the experiments of Figure 1 might be necessary to cause cell death. To investigate whether this is the case, we examined if light-induced cell-death could be observed when the peptides were only localized at the plasma membrane of cells. For these experiments, HeLa cells were first incubated with the peptides (3 µM) at 4°C to block endocytosis. Cells were then irradiated with the peptides still present in the media (the peptide is not retained at the plasma membrane when cells are washed). […] Cells were then washed and observed by fluorescence imaging. […] On the other hand, the membrane damage and cell death obtained after TMR-TAT photosensitization were also observed when hematoporphyrin (HP) or hematoporphyrin derivative (HPD) were used (Fig. 4B). […]

[3] = system: red blood cells (RBCs); settings: for effect of hydrophilic 1O2 scavenger on photohemolysis by TMR-TAT or TMR-riTAT: scavenger up to 50 mM, TMR-TAT or TMR-riTAT 3 µM
Description: Whole blood was purchased from Gulf Coast Regional Blood Center (Houston, TX). Erythrocytes were centrifuged for 5 min at 1500 g and the erythrocyte pellet was resuspended with PBS. This was repeated three times to remove plasma and buffy coat. The erythrocytes (50% volume in PBS) were diluted in PBS to a final concentration of 0.25%. Indicated concentration of peptide was added to the medium and the samples were added to the wells of an 8-well chamber glass slide (Nunc). Cells were typically allowed to settle to the bottom of the dish for 5 minutes prior to imaging so as to obtain a layer of cells in the focal plane.
Cells were placed on an inverted epifluorescence microscope (Model IX81, Olympus, Center Valley, PA) equipped with a heating stage maintained at 37°C. The microscope is configured with a spinning disk unit to perform both confocal and wide-field fluorescence microscopy. Images were collected using a Rolera-MGI Plus back-illuminated EMCCD camera (Qimaging, Surrey, BC, Canada). Images were acquired using bright field imaging and two standard fluorescence filter sets: Texas Red (Ex = 560±20 nm/Em = 630±35 nm), and CFP (Ex = 436±10 nm/Em = 480±20 nm). The excitation light was from a 100 W halogen lamp (Olympus USH 1030C) passed through the filter cubes and 40 or 100× objective lenses. Neutral density filters (ND 1, 2, 3, or 4 on the instrument, corresponding to 100, 25, 12.5, or 5% transmittance) and different exposure times were used to modulate the amount of light samples were exposed to. The bright field and fluorescence intensities of cells and ghosts were measured using the SlideBook 4.2 software (Olympus, Center Valley, PA). To determine the percentage of cells stained by SYTOX® Blue, cells were imaged with a 20× objective by phase contrast. Ten to twenty images were acquired for each experiment. The total number of cells in a given image was determined from the phase contrast image while the number of dead cells was determined by identifying cells containing a blue fluorescent nucleus stained by SYTOX® Blue. Cell viability was determined by establishing a ratio of dead cells/total number of cells for each sample (at least 1000 cells were counted in each experiments and each experiments were repeated 3 times).
TMR and TMR containing peptides were used at 2 µM. All experiments were performed by irradiating the samples at 560 nm for 400 msec (∼8 J/cm^2). The data in the histogram represents the average of 4 experiments and the error bars correspond to the standard deviation.

[4] = cited from earlier work
Description: Upon light irradiation TMR-TAT rapidly and efficiently disrupts the membrane of endosomes. However, in our hands, this activity is also accompanied by the simultaneous destruction of cells. The peptide therefore played the role of a photosensitizer, a molecule able to kill cells upon light irradiation. While multiple cellular events might take place during the photosensitization of the compound, the damage to cellular membranes other than that of endosomes appears to lead to this photocytotoxic effect. The peptide was for instance able to lyse the plasma membrane of HeLa cells as well as the m ...

[5] = system: HeLa cells; experiment: Photo-induced endosomal release (fluorescence imaging); format: cell-based, human; settings: washed
Description: as §1, §2
The effect of light irradiation on cells that have endocytosed TMR-TAT was first investigated. HeLa cells were incubated in the presence of TMR-TAT (3 µM) for 1 hour at 37°C. After washing the cells, the sample was placed on a microscope and the cellular distribution of the peptide was assessed by fluorescence imaging. […] Within seconds, the content of many endosomes was released into the cell and the peptides were distributed throughout the cell. The peptide also accumulated at the nucleoli, a known effect of TAT [7]. […] The viability of non-irradiated cells was, in contrast, not affected by TMR-TAT (Fig. 2B); we found the cytotoxicity of the peptide to be negligible in the absence of light at concentrations up to 25 µM (supporting information Fig. S1).

[6] = system: HeLa cells; experiment: Endocytic uptake (fluorescence of endocytic organelles); format: cell-based, human
Description: as §1
Supplementary file pone.0017732.s003.tif: Figure S3 Comparison of the fluorescence intensity of endosomes containing TMR-TAT (incubation at 3 µM) or TMR-K9 (incubation at 10 µM) in the images presented in Figure 1. Imaging was performed in both cases under identical conditions. The fluorescence intensities of all endocytic organelles was measured the Slidebook software. […] (TIF) Click here for additional data file.

## 5(6)-carboxytetramethylrhodamine [TMR, reference compound]
[1]; washed
  photocytotoxicity / cell death after irradiation at 560 nm: did not cause cell death; also recorded: essentially non-cytotoxic
[2]
  light-induced cell death with peptide only extracellular: did not die
[3]; RBCs 0.25% in PBS, irradiation at 560 nm
  photohemolysis (lytic effect on RBCs upon light exposure): no lytic effect

## CC1=C(CCC(=O)O)c2cc3[nH]c(cc4nc(cc5[nH]c(cc1n2)c(C)c5C(C)O)C(C)=C4C(C)O)c(C)c3CCC(=O)O (stereo not shown) [HP, hematoporphyrin]
[1]; incubated 1 hour, washed with L-15, irradiated at 560 nm
  membrane damage and cell death after photosensitization: also observed
[4]
  singlet oxygen quantum yield: approximately 0.5

## N[C@@H](Cc1c[nH]cn1)C(=O)O [L-histidine, reference compound]
[3]
  effect of hydrophilic 1O2 scavenger on photohemolysis by TMR-TAT or TMR-riTAT: no detectable decrease

## CC(/C=C/C=C(\C)C(=O)O)=C\C=C\C=C(C)\C=C\C=C(/C)C(=O)O [crocetin, reference compound]
[1]; TMR-TAT 3 µM with crocetin 50 µM for 1 hour, washed, 560 nm
  cell death by irradiated TMR-TAT in the presence of quencher: cell-death was not observed; also recorded: not accompanied by membrane blebbing or SYTOX® Blue staining
[5]; TMR-TAT 3 µM with crocetin 50 µM for 1 hour, 560 nm
  endosomal release of TMR-TAT in the presence of quencher: lesser extent; also recorded: reduced by crocetin but not abolished
[3]; crocetin 50 µM
  effect of quencher on photohemolysis: dramatic reduction

## [N-]=[N+]=[N-].[Na+] [sodium azide, reference compound]
[3]
  effect of hydrophilic 1O2 scavenger on photohemolysis by TMR-TAT or TMR-riTAT: no detectable decrease

## CC(=O)Oc1c(C)c(C)c2c(c1C)CCC(C)(CCC[C@H](C)CCC[C@H](C)CCCC(C)C)O2 (stereo partly drawn) [α-tocopherol acetate]
[1]; α-tocopherol acetate prior to TMR-TAT incubation and during irradiation
  onset of photosensitization of TMR-TAT in the presence of quencher: delayed
[1]; α-tocopherol acetate prior to TMR-TAT incubation and during irradiation, data not shown
  photo-induced endosomal release and cell death by TMR-TAT in the presence of quencher: still observed

## GRKKRRQRRR [TAT, prototypical cell-penetrating peptide TAT, unlabeled]
[1]; washed
  photocytotoxicity / cell death after irradiation at 560 nm: did not die

## TMR-KKKKKKKKK-NH2 [TMR-K9, 9 positively charged lysine residues labeled with TMR; serves as a control]
[1]; washed
  photocytotoxicity / cell death after irradiation at 560 nm: remain viable; also recorded: no photocytoxicity; also recorded: essentially non-cytotoxic
[5]; incubation 1 h 37°C (3 µM; TMR-K9 10 µM), irradiated at 560±20 nm
  photo-induced endosomal release (photoendosomolytic activity) at 560 nm: not affected
[2]
  light-induced cell death with peptide only extracellular: did not die
[3]; RBCs 0.25% in PBS, 2 µM, 560 nm for 400 msec (~8 J/cm^2), average of 4 experiments
  fold less efficient than TMR-TAT and TMR-riTAT in causing photohemolysis: 5 fold
[6]; 1 h at 37°C, washed, fluorescence imaging (TMR-TAT 3 µM; TMR-K9 higher concentration)
  endocytic uptake by cells: endocytosed by cells
[6]; TMR-K9 incubation at 10 µM vs TMR-TAT at 3 µM, identical imaging
  amount present in endocytic organelles (fluorescence intensity) compared with TMR-TAT: equal or greater that that of TMR-TAT
